Here are results for 1 compound from patent US20260207626A1, “SYNTHETIC TRITERPENOIDS AND COMPOSITIONS THEREOF IN WEIGHT MANAGEMENT, SKELETAL MUSCLE FUNCTION, AND APPETITE SUPPRESSION” (The Board of Regents of the University of Texas System, priority 2022, published 2026).

For orientation: cell viability means a per cent measure of how many cells are alive, often set against a control. Lower therefore signals more harm to the cells.

Entries after “also recorded” stand apart in the source; their conditions may differ. Marks after values point to notes of the source that are not given here.

Data set [1] in a line: Body composition by NMR at 42 days. The conditions noted are these: all groups. It is filed as in vivo, C57BL/6J mice. The protocol: FIG. 24—Body composition at 42 days. Body composition was measured by NMR. C57BL/6J mice were fed a HFD with or without incorporation of CDDO-EA (diet containing 0.04% CDDO-EA) or LFD or HFD pair-fed for 6 weeks (n=5). BW=body weight. Data are represented as mean±SEM (Two-way Repeated Measures ANOVA).
C57BL/6J mice (6-8 weeks old, male, strain #000664, The Jackson Laboratory) were divided into four (4) groups (i)-(iv)): (i) ad libitum Low fat caloric content (LFD-10% of total calories from fat caloric content, #TD.08806, Envigo), (ii) ad libitum HFD (60% of total calories from fat caloric content, #TD.06414, Envigo), (iii) HFD+CDDO-EA (diet containing 0.04% CDDO-EA), and (iv) HFD pair-fed to food intake of mice fed HFD+CDDO-EA. The study was for 6 weeks (42 days) (performed at Vanderbilt Metabolic Mouse Phenotyping Center (VMMPC)). Mice were singly housed in a Promethion Metabolic Analyzer and were monitored continuously for 7 days to assess feeding and EE.

The subject of data set [2] is L6-GLUT4myc myotubes. As to the kind of experiment: Sulforhodamine B (SRB) cell viability assay. The conditions noted are these: 500 nM CDDO-EA, 24 hours. It is filed as cell-based, rat. The protocol: Sulforhodamine B (SRB) cell viability assay: L6-GLUT4myc myoblasts (4000 cells/well) were seeded on a 96-well plate and differentiated into myotubes with differentiation medium for 7 days. Myotubes were then treated with doubling concentrations of CDDO-EA for 6 or 24 h. After treatment, myotubes were fixed in 10% cold trichloroacetic acid (TCA) (Sigma Aldrich), for 1 h in 4° C., followed by three washings with water. The plate was then dried, and the cells were dyed with 100 μL/well of 0.057% SRB (Sigma Aldrich) in 1% acetic acid for 30 min in room temperature. The plate was washed with 1% acetic acid five times, dried, and 200 μL/well of 10 mM unbuffered tris-base solution were added to dissolve the bound SRB. The plate was shaken for 1 h and then read on SpectraMax at 560 nm. Results were normalized to values for non-treated cells.

The nature of data set [3]: Chow consumption / energy intake of mice fed LFD or HFD with or without CDDO-EA. It is filed as in vivo, C57B16/J mice. The protocol:
To assess the protective effects of CDDO-EA from obesity and insulin resistance, C57B16/J mice (6-8 weeks old, male, strain #000664, The Jackson Laboratory) were used. The animals were fed a Low Fat diet (LFD) (10% total calories from fat, […]) or a High Fat diet (HFD) (60% of total calories from fat) incorporated with or without CDDO-EA (chow containing 0.04% CDDO-EA) for six weeks.
Energy intake was also measured. Energy intake is determined as a measure of the amount of food consumed by a subject (such as a subject mouse). […] Thus CDDO-EA protects from development of HFD-induced obesity in vivo.
The mice were maintained on one of the 4 food regiment schedules as defined in Example 2. The amount of food consumed by an animal was monitored weekly.

In data set [4] the test system is NF-κB p65 (Ser536). The data set is described as follows: Western blot of LPS-induced NF-κB phosphorylation in L6-GLUT4myc myotubes. The settings on record: 500 nM CDDO-EA 1 hr then 100 ng/ml LPS 1 hr. It is filed as cell-based, rat. From the text:
To examine the anti-inflammatory properties of CDDO-EA in skeletal muscle cells, CDDO-EA was examined for its effect on nuclear factor-kappa B (NF-κB) activity in L6-GLUT4myc muscle cells, in the context of LPS-mediated inflammatory responses in L6-GLUT4myc muscle cells. All experiments were independently repeated one to four times and done in duplicate or triplicate, and data were statistically analyzed by One-Way ANOVA or unpaired t-test, two tailed.
Cells were studied with vehicle alone [0.125% dimethyl sulfoxide (DMSO)] and LPS with and without CDDO-EA. […]
Western blotting and subcellular fractionation: L6-GLUT4myc myoblasts (4×10^4 cells/ml, 2 ml/well) were seeded onto 6-well dishes and differentiated with differentiation medium for 7 days. […] Protein concentrations were determined using the Pierce BCA Protein Assay (Thermo Fisher Scientific), and equal amounts of protein were separated by electrophoresis and subsequently transferred to nitrocellulose membranes. Membranes were analyzed using the following antibodies from Cell Signaling Technology: phosphorylated NF-κB (Ser536) (93 H1, cat #3033,1:1000), phosphorylated IKB-α (Ser32) (14D4, cat #2859,1:1000), IKB-α (44D4, cat #4812, 1:1000), phosphorylated p38 (Thr180/Tyr182) (cat #9211, 1:1000), p38 (cat #9212, 1:1000). […] Bands were quantitated using ImageQuant (GE Healthcare). […]
(In general: Immunoblotting shows a protein as a band on a membrane.)

Take `CCNC(=O)[C@]12CCC(C)(C)C[C@H]1C1C(=O)C=C3[C@@]4(C)C=C(C#N)C(=O)C(C)(C)[C@@H]4CC[C@@]3(C)[C@]1(C)CC2` (stereo partly drawn) [CDDO-EA, (4aS,6aR,6bS,8aR,12aS,14bS)-11-cyano-N-ethyl-2,2,6a,6b,9,9,12a-heptamethyl-10,14-dioxo-1,3,4,5,6,6a,6b, 7,8,8a,9,10,12a, 14,14a, 14b-hexadecahydropicene-4a (2H)-carboxamide]: in data set [1], the lean mass result is listed as “no difference in lean mass between the groups”. For the same compound, the cell viability in data set [2] was 62%. Also, the “Grams of Chow per Week Consumed by Animals” value in data set [3] (HFD + CDDO-EA (0.04%), week 1) is 18.0 ± 0.9 Grams of Chow per Week; in data set [3] (HFD + CDDO-EA (0.04%), week 2), 18.4 ± 1.0 Grams of Chow per Week; in data set [3] (HFD + CDDO-EA (0.04%), week 3) it was 16.8 ± 0.5 Grams of Chow per Week; in data set [3] (HFD + CDDO-EA (0.04%), week 4), 15.8 ± 0.4* * Grams of Chow per Week; in data set [3] (HFD + CDDO-EA (0.04%), week 5) it was 16.2 ± 0.5 Grams of Chow per Week; in data set [3] (HFD + CDDO-EA (0.04%), week 6), 16.6 ± 0.4 Grams of Chow per Week. Moreover, the “Grams of Chow per Week Consumed by Animals” value in data set [3] (LFD + CDDO-EA (0.04%), week 1) is listed as 19.2 ± 0.6 Grams of Chow per Week; in data set [3] (LFD + CDDO-EA (0.04%), week 2), 21.5 ± 0.6 Grams of Chow per Week; in data set [3] (LFD + CDDO-EA (0.04%), week 3) it was 21.1 ± 0.7 Grams of Chow per Week; in data set [3] (LFD + CDDO-EA (0.04%), week 4), 20.0 ± 0.2 Grams of Chow per Week; in data set [3] (LFD + CDDO-EA (0.04%), week 5) it was 21.3 ± 0.3 Grams of Chow per Week; in data set [3] (LFD + CDDO-EA (0.04%), week 6), 19.8 ± 0.4 Grams of Chow per Week. In data set [3] (HFD chow mixed with CDDO-EA), the “energy intake (caloric food consumption)” value is given as “decreased energy intake; also recorded: inhibits energy intake”. In data set [3] (HFD+CDDO-EA group, all six weeks), the “average weekly chow consumption” value was 17 g. Further, the “more food consumed by HFD-fed animals than by HFD plus CDDO-EA-fed animals” value in data set [3] (week 3) was 20%. In addition, the “more food consumed by HFD-alone animals than by HFD + CDDO-EA animals” value in data set [3] (week one) is reported as “at least 10%”. Also, the “LPS-induced NF-κB phosphorylation” value in data set [4] is “decreased LPS-induced NF-κB and nuclear factor of kappa light polypeptide gene enhancer in B-cells inhibitor-alpha (IκB) phosphorylation; also recorded: inhibited LPS-induced NF-κB phosphorylation; also recorded: inhibits lipopolysaccharide (LPS)-induced NF-κB and Inhibitory kappa B alpha (IκB-α) phosphorylation”.
